# Test system: 324938-238-R-J1-PDC complex spheroids viability
# Experiment: Anticancer human tumor 324938-238-R-J1-PDC patient-derived bladder carcinoma cell line growth inhibition [CLK]
# Details: for IC50: curve of first compound; for viability, T/C: stronger effect = lower value
# Outline: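 Patient-derived tumor cells grown as complex spheroids with HUVEC endothelial cells and mesenchymal stem cells, treated with drug combinations. Concentrations descend in half-log steps from near clinical Cmax, or from 10 microM if Cmax unknown.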
# [1] = second compound 0.0316 µM, first compound 0.0316 µM
# [2] = second compound 0.0316 µM, first compound 0.1 µM
# [3] = second compound 0.0316 µM, first compound 0.316 µM
# [4] = second compound 0.0316 µM, first compound 1 µM
# [5] = second compound 0.0316 µM, first compound 3.16 µM
# [6] = second compound 0.0316 µM, first compound 10 µM
# [7] = second compound 0.1 µM, first compound 0.0316 µM
# [8] = second compound 0.1 µM, first compound 0.1 µM
# [9] = second compound 0.1 µM, first compound 0.316 µM
# [10] = second compound 0.1 µM, first compound 1 µM
# [11] = second compound 0.1 µM, first compound 3.16 µM
# [12] = second compound 0.1 µM, first compound 10 µM
# [13] = second compound 0.316 µM, first compound 0.0316 µM
# [14] = second compound 0.316 µM, first compound 0.1 µM
# [15] = second compound 0.316 µM, first compound 0.316 µM
# [16] = second compound 0.316 µM, first compound 1 µM
# [17] = second compound 0.316 µM, first compound 3.16 µM
# [18] = second compound 0.316 µM, first compound 10 µM
# [19] = second compound 1 µM, first compound 0.0316 µM
# [20] = second compound 1 µM, first compound 0.1 µM
# [21] = second compound 1 µM, first compound 0.316 µM
# [22] = second compound 1 µM, first compound 1 µM
# [23] = second compound 1 µM, first compound 3.16 µM
# [24] = second compound 1 µM, first compound 10 µM
# [25] = second compound 3.16 µM, first compound 0.0316 µM
# [26] = second compound 3.16 µM, first compound 0.1 µM
# [27] = second compound 3.16 µM, first compound 0.316 µM
# [28] = second compound 3.16 µM, first compound 1 µM
# [29] = second compound 3.16 µM, first compound 3.16 µM
# [30] = second compound 3.16 µM, first compound 10 µM
# [31] = second compound 10 µM, first compound 0.0316 µM
# [32] = second compound 10 µM, first compound 0.1 µM
# [33] = second compound 10 µM, first compound 0.316 µM
# [34] = second compound 10 µM, first compound 1 µM
# [35] = second compound 10 µM, first compound 3.16 µM
# [36] = second compound 10 µM, first compound 10 µM
# 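Further: viability read after seven days of drug exposure.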
# 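Wherever viability, T/C is given: 100% = DMSO vehicle control wells.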
compound,measurement,setting,value
CC(=O)O[C@H]1C(=O)[C@@]2(C)[C@H]([C@H](OC(=O)c3ccccc3)[C@]3(O)C[C@H](OC(=O)[C@H](O)[C@@H](NC(=O)c4ccccc4)c4ccccc4)C(C)=C1C3(C)C)[C@]1(OC(C)=O)CO[C@@H]1C[C@@H]2O + CN1CCN(c2cc(C(=O)Nc3cc4cc(-c5cnn(C)c5)ccc4cn3)ccn2)CC1,IC50,second compound 0.0316 µM,< 0.0316 µM
same,IC50,second compound 0.1 µM,< 0.0316 µM
same,IC50,second compound 0.316 µM,< 0.0316 µM
same,IC50,second compound 1 µM,< 0.0316 µM
same,IC50,second compound 3.16 µM,< 0.0316 µM
same,IC50,second compound 10 µM,< 0.0316 µM
same,"viability, T/C",[1],14.2%
same,"viability, T/C",[2],13.8%
same,"viability, T/C",[3],14.7%
same,"viability, T/C",[4],12.9%
same,"viability, T/C",[5],14.6%
same,"viability, T/C",[6],15.7%
same,"viability, T/C",[7],13.7%
same,"viability, T/C",[8],14%
same,"viability, T/C",[9],13.6%
same,"viability, T/C",[10],13.8%
same,"viability, T/C",[11],14.5%
same,"viability, T/C",[12],16.9%
same,"viability, T/C",[13],16.9%
same,"viability, T/C",[14],15.6%
same,"viability, T/C",[15],15.2%
same,"viability, T/C",[16],16.9%
same,"viability, T/C",[17],15%
same,"viability, T/C",[18],18%
same,"viability, T/C",[19],0.92%
same,"viability, T/C",[20],0.96%
same,"viability, T/C",[21],0.69%
same,"viability, T/C",[22],1.04%
same,"viability, T/C",[23],0.73%
same,"viability, T/C",[24],0.69%
same,"viability, T/C",[25],0.17%
same,"viability, T/C",[26],0.22%
same,"viability, T/C",[27],0.22%
same,"viability, T/C",[28],0.13%
same,"viability, T/C",[29],0.21%
same,"viability, T/C",[30],0.18%
same,"viability, T/C",[31],0.13%
same,"viability, T/C",[32],0.16%
same,"viability, T/C",[33],0.51%
same,"viability, T/C",[34],0.16%
same,"viability, T/C",[35],0.28%
same,"viability, T/C",[36],0.28%
CCc1c2c(nc3ccc(O)cc13)-c1cc3c(c(=O)n1C2)COC(=O)[C@]3(O)CC + CN1CCN(c2cc(C(=O)Nc3cc4cc(-c5cnn(C)c5)ccc4cn3)ccn2)CC1,IC50,second compound 0.0316 µM,< 0.00316 µM
same,IC50,second compound 0.1 µM,< 0.00316 µM
same,IC50,second compound 0.316 µM,< 0.00316 µM
same,IC50,second compound 1 µM,< 0.00316 µM
same,IC50,second compound 3.16 µM,< 0.00316 µM
same,IC50,second compound 10 µM,< 0.00316 µM
same,"viability, T/C","second compound 0.0316 µM, first compound 0.00316 µM",14.9%
same,"viability, T/C","second compound 0.0316 µM, first compound 0.01 µM",10.1%
same,"viability, T/C",[1],11.5%
same,"viability, T/C",[2],9.42%
same,"viability, T/C",[3],8.03%
same,"viability, T/C",[4],1.47%
same,"viability, T/C","second compound 0.1 µM, first compound 0.00316 µM",12.7%
same,"viability, T/C","second compound 0.1 µM, first compound 0.01 µM",10.3%
same,"viability, T/C",[7],8.87%
same,"viability, T/C",[8],8.12%
same,"viability, T/C",[9],6.95%
same,"viability, T/C",[10],1.21%
same,"viability, T/C","second compound 0.316 µM, first compound 0.00316 µM",10.5%
same,"viability, T/C","second compound 0.316 µM, first compound 0.01 µM",7.5%
same,"viability, T/C",[13],4.44%
same,"viability, T/C",[14],3.89%
same,"viability, T/C",[15],0.83%
same,"viability, T/C",[16],0.18%
same,"viability, T/C","second compound 1 µM, first compound 0.00316 µM",0.42%
same,"viability, T/C","second compound 1 µM, first compound 0.01 µM",0.28%
same,"viability, T/C",[19],0.24%
same,"viability, T/C",[20],0.06%
same,"viability, T/C",[21],0.09%
same,"viability, T/C",[22],0.38%
same,"viability, T/C","second compound 3.16 µM, first compound 0.00316 µM",0.16%
same,"viability, T/C","second compound 3.16 µM, first compound 0.01 µM",0.17%
same,"viability, T/C",[25],0.19%
same,"viability, T/C",[26],0.1%
same,"viability, T/C",[27],0.16%
same,"viability, T/C",[28],0.14%
same,"viability, T/C","second compound 10 µM, first compound 0.00316 µM",0.1%
same,"viability, T/C","second compound 10 µM, first compound 0.01 µM",0.11%
same,"viability, T/C",[31],0.17%
same,"viability, T/C",[32],0.11%
same,"viability, T/C",[33],0.16%
same,"viability, T/C",[34],0.16%
COc1ccc([C@@H](O)c2cc(-c3ncnc4cc(N5CCOCC5)ccc34)c(F)cc2Cl)nn1 + CN1CCN(c2cc(C(=O)Nc3cc4cc(-c5cnn(C)c5)ccc4cn3)ccn2)CC1,IC50,second compound 0.0316 µM,2.01 µM
same,IC50,second compound 0.1 µM,0.0575 µM
same,IC50,second compound 0.316 µM,< 0.0316 µM
same,IC50,second compound 1 µM,< 0.0316 µM
same,IC50,second compound 3.16 µM,< 0.0316 µM
same,IC50,second compound 10 µM,< 0.0316 µM
same,"viability, T/C",[1],72%
same,"viability, T/C",[2],78.8%
same,"viability, T/C",[3],65.8%
same,"viability, T/C",[4],59.8%
same,"viability, T/C",[5],44.1%
same,"viability, T/C",[6],34.7%
same,"viability, T/C",[7],53%
same,"viability, T/C",[8],48%
same,"viability, T/C",[9],40.3%
same,"viability, T/C",[10],44.5%
same,"viability, T/C",[11],37.8%
same,"viability, T/C",[12],30.9%
same,"viability, T/C",[13],19.6%
same,"viability, T/C",[14],21.9%
same,"viability, T/C",[15],21.4%
same,"viability, T/C",[16],20.2%
same,"viability, T/C",[17],19%
same,"viability, T/C",[18],18.9%
same,"viability, T/C",[19],0.42%
same,"viability, T/C",[20],0.46%
same,"viability, T/C",[21],0.79%
same,"viability, T/C",[22],0.47%
same,"viability, T/C",[23],1.14%
same,"viability, T/C",[24],0.71%
same,"viability, T/C",[25],0.13%
same,"viability, T/C",[26],0.16%
same,"viability, T/C",[27],0.28%
same,"viability, T/C",[28],0.12%
same,"viability, T/C",[29],0.24%
same,"viability, T/C",[30],0.29%
same,"viability, T/C",[31],0.06%
same,"viability, T/C",[32],0.14%
same,"viability, T/C",[33],0.25%
same,"viability, T/C",[34],0.13%
same,"viability, T/C",[35],0.31%
same,"viability, T/C",[36],0.58%
COc1cccc2c1C(=O)c1c(O)c3c(c(O)c1C2=O)CC(O)(C(=O)CO)CC3OC1CC(N)C(O)C(C)O1 (stereo not given) + CN1CCN(c2cc(C(=O)Nc3cc4cc(-c5cnn(C)c5)ccc4cn3)ccn2)CC1,IC50,second compound 0.0316 µM,< 0.0316 µM
same,IC50,second compound 0.1 µM,< 0.0316 µM
same,IC50,second compound 0.316 µM,< 0.0316 µM
same,IC50,second compound 1 µM,< 0.0316 µM
same,IC50,second compound 3.16 µM,< 0.0316 µM
same,IC50,second compound 10 µM,< 0.0316 µM
same,"viability, T/C",[1],19.4%
same,"viability, T/C",[2],14.4%
same,"viability, T/C",[3],8.3%
same,"viability, T/C",[4],0.88%
same,"viability, T/C",[5],0.09%
same,"viability, T/C",[6],0.14%
same,"viability, T/C",[7],16.9%
same,"viability, T/C",[8],16.5%
same,"viability, T/C",[9],8.06%
same,"viability, T/C",[10],0.56%
same,"viability, T/C",[11],0.09%
same,"viability, T/C",[12],0.68%
same,"viability, T/C",[13],17.8%
same,"viability, T/C",[14],16.2%
same,"viability, T/C",[15],4.21%
same,"viability, T/C",[16],0.29%
same,"viability, T/C",[17],0.07%
same,"viability, T/C",[18],0.12%
same,"viability, T/C",[19],0.37%
same,"viability, T/C",[20],0.2%
same,"viability, T/C",[21],0.1%
same,"viability, T/C",[22],0.09%
same,"viability, T/C",[23],0.35%
same,"viability, T/C",[24],0.44%
same,"viability, T/C",[25],0.12%
same,"viability, T/C",[26],0.28%
same,"viability, T/C",[27],0.17%
same,"viability, T/C",[28],0.06%
same,"viability, T/C",[29],0.22%
same,"viability, T/C",[30],0.3%
same,"viability, T/C",[31],0.09%
same,"viability, T/C",[32],0.18%
same,"viability, T/C",[33],0.26%
same,"viability, T/C",[34],0.1%
same,"viability, T/C",[35],0.15%
same,"viability, T/C",[36],0.48%
O=c1[nH]cc(F)c(=O)[nH]1 + CN1CCN(c2cc(C(=O)Nc3cc4cc(-c5cnn(C)c5)ccc4cn3)ccn2)CC1,IC50,second compound 0.0316 µM,0.236 µM
same,IC50,second compound 0.1 µM,0.0942 µM
same,IC50,second compound 0.316 µM,< 0.0316 µM
same,IC50,second compound 1 µM,< 0.0316 µM
same,IC50,second compound 3.16 µM,< 0.0316 µM
same,IC50,second compound 10 µM,< 0.0316 µM
same,"viability, T/C",[1],74%
same,"viability, T/C",[2],72.8%
same,"viability, T/C",[3],42.1%
same,"viability, T/C",[4],20.4%
same,"viability, T/C",[5],23.9%
same,"viability, T/C",[6],19.1%
same,"viability, T/C",[7],61.5%
same,"viability, T/C",[8],48.2%
same,"viability, T/C",[9],36.4%
same,"viability, T/C",[10],22.6%
same,"viability, T/C",[11],18.2%
same,"viability, T/C",[12],18.1%
same,"viability, T/C",[13],23.1%
same,"viability, T/C",[14],23.9%
same,"viability, T/C",[15],20.6%
same,"viability, T/C",[16],18.9%
same,"viability, T/C",[17],16.8%
same,"viability, T/C",[18],17%
same,"viability, T/C",[19],0.71%
same,"viability, T/C",[20],1.08%
same,"viability, T/C",[21],0.67%
same,"viability, T/C",[22],0.81%
same,"viability, T/C",[23],0.77%
same,"viability, T/C",[24],1.58%
same,"viability, T/C",[25],0.09%
same,"viability, T/C",[26],0.15%
same,"viability, T/C",[27],0.1%
same,"viability, T/C",[28],0.11%
same,"viability, T/C",[29],0.08%
same,"viability, T/C",[30],0.19%
same,"viability, T/C",[31],0.07%
same,"viability, T/C",[32],0.12%
same,"viability, T/C",[33],0.13%
same,"viability, T/C",[34],0.09%
same,"viability, T/C",[35],0.1%
same,"viability, T/C",[36],0.19%
